pIC50: −log10 of the molar value.

The values that follow come from paper PMC11187573, “Identification of SARS-CoV-2 Mpro inhibitors through deep reinforcement learning for de novo drug design and computational chemistry approaches” (RSC Medicinal Chemistry, 2024).

One assay deals with trypsin. Also noted: method as in COVID Moonshot. Conditions: Docking_validation.csv; ref COVID Moonshot; read-out: trypsin_IC50; cited from earlier work.
Assay [1] relates to SARS-CoV-2 main protease. In kind it is biochemical. Conditions: Docking validation set, class assigned from COVID Moonshot IC50.
The test system of assay [2] is SARS-CoV-2 main protease. The note with it: Docking_validation.csv; ref COVID Moonshot; read-out: f_avg_IC50; cited from earlier work.
The target of the next assay is human Cathepsin L (Homo sapiens, UniProt P07711). Nature of the assay: Fluorimetric human liver Cathepsin L (hCatL) activity assay. It counts as biochemical. The note with it: reference inhibitor.
Chain of human Cathepsin L (P07711 114-333 limits assumed): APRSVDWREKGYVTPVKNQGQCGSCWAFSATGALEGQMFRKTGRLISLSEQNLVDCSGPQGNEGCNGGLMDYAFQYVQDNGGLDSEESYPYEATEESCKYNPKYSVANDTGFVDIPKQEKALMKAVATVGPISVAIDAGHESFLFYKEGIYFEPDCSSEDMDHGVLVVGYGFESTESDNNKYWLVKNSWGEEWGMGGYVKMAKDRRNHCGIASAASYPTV
Assay [3] concerns host–cell proteases, such as cathepsin L. On the set-up: method as in PMID 34726479, PMID 35352927, PMID 33158912. Conditions: cited from earlier work.

For `O=C(Oc1cncc(Cl)c1)c1cccc2[nH]ccc12` [ALP-POS-c59291d4-5, O=C(Oc1cncc(Cl)c1)c1cccc2[nH]ccc12], in the assay on trypsin, the pIC50 is 4.00.

`O=C(Cc1cccc(Cl)c1)Nn1cnc2ccccc2c1=O` [JAN-GHE-5a013bed-3, O=C(Cc1cccc(Cl)c1)Nn1cnc2ccccc2c1=O]: the pIC50 was 4.00 with trypsin and 5.06 in the assay on SARS-CoV-2 main protease [2]. Moreover, in the assay with SARS-CoV-2 main protease [1], the “label (active / inactive)” value was “inactive”. Regarding `CC(=O)N[C@@H](CC(C)C)C(=O)N[C@@H](CC(C)C)C(=O)N[C@H](C=O)CCCNC(=N)N` [Leupeptin], the pIC50 on human Cathepsin L is around 8.70. Turning to `Cc1ccncc1NC(=O)Cc1cncc(Cl)c1` [TRY-UNI-2eddb1ff-2, Cc1ccncc1NC(=O)Cc1cncc(Cl)c1], the pIC50 with trypsin is 4.00; with SARS-CoV-2 main protease [2], 4.33. Moreover, the “label (active / inactive)” value in the assay with SARS-CoV-2 main protease [1] is “inactive”.

`Cn1cnc(Cn2c(=O)[nH]/c(=N\c3cc4cn(C)nc4cc3Cl)n(Cc3cc(F)c(F)cc3F)c2=O)n1` [ensitrelvir]: in assay [3], the “inhibitory activity against host–cell proteases, such as cathepsin L” value is listed as “no inhibitory activity”. For Nirmatrelvir–ritonavir, the “inhibitory activity against host–cell proteases, such as cathepsin L” value in assay [3] is listed as “no inhibitory activity”.
